# Molecular target: T1, ZFAT_C392 (Homo sapiens, UniProt Q9P243)
# T1 construct: endogenous in cells; host or cells: 22Rv1
# T1 sequence (Q9P243 1-1243): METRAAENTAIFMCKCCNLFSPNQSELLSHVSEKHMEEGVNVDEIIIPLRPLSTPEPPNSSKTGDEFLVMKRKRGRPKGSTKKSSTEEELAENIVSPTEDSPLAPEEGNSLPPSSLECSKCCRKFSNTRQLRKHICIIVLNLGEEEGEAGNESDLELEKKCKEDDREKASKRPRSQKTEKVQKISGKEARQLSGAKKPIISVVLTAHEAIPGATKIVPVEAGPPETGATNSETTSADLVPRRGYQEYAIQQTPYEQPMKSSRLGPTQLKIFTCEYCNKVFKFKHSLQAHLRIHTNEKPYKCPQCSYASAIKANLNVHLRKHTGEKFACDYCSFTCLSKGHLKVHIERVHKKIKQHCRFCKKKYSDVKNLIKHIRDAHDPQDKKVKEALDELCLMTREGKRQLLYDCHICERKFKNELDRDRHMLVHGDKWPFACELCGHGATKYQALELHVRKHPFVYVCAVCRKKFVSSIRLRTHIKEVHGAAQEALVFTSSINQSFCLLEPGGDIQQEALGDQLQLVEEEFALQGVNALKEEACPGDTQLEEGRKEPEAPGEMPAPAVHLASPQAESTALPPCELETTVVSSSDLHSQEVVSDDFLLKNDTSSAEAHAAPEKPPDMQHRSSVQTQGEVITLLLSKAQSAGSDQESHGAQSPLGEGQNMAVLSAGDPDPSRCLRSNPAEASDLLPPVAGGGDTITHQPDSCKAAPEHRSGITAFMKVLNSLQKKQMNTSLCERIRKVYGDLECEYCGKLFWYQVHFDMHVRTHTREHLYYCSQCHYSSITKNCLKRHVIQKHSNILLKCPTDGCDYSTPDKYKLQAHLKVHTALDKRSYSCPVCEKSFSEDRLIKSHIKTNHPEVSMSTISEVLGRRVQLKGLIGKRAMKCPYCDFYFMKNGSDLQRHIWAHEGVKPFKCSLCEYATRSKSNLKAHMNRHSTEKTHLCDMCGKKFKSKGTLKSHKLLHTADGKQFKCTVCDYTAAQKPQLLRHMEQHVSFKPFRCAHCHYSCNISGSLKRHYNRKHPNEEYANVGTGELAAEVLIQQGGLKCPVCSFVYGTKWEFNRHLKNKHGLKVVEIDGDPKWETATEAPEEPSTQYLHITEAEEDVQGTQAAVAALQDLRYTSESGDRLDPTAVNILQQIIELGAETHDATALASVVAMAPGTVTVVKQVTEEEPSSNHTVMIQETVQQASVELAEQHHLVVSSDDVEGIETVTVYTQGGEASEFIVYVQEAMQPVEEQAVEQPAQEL
# Assay: IA-DTB cysteine engagement
# Format: binding
# Conditions: 22Rv1 cells, 20 μM probe, 1 h, relative to DMSO
# Outline: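 Probe-exposed cells were lysed, IA-DTB-labeled, trypsinized and streptavidin-enriched. Multiplexed TMT quantitation gave engagement ratios versus DMSO, with non-tryptic peptides excluded and intensities normalized to median summed signal.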
row,% engagement ZFAT_C392 [%],Structure (SMILES)
1,68.5,"C=CC(=O)N1C[C@H](c2ccc(Br)cc2)[C@H]1C(=O)Nc1cccc2cccnc12 [MY-3B, (2S,3S)-1-acryloyl-3-(4-bromophenyl)-N-(quinolin-8-yl)azetidine-2-carboxamide]"
2,39,"C=CC(=O)N1C[C@H](c2ccc(Br)cc2)[C@@H]1C(=O)Nc1cccc2cccnc12 [MY-1B, (2R,3S)-1-acryloyl-3-(4-bromophenyl)-N-(quinolin-8-yl)azetidine-2-carboxamide]"
3,17.5,"C=CC(=O)N1C[C@H](c2ccc(Br)cc2)[C@H]1C(=O)Nc1cccc2cccnc12 [MY-3A, (2S,3S)-1-acryloyl-3-(4-bromophenyl)-N-(quinolin-8-yl)azetidine-2-carboxamide]"
4,32.5,"C=CC(=O)N1C[C@@H](c2ccc(Br)cc2)[C@H]1C(=O)Nc1cccc2cccnc12 [MY-1A, (2S,3R)-1-acryloyl-3-(4-bromophenyl)-N-(quinolin-8-yl)azetidine-2-carboxamide]"
